In ChEMBL document CHEMBL1150333, “Isolation and antimalarial activity of new morphinan alkaloids on Plasmodium yoelii liver stage” (Bioorg Med Chem, 2008):
Calls of active or inactive are those of the source. The calls are words filed in the database; no cut-off is given here.

Columns and labels:
[1] = Cytotoxicity against primary mouse hepatocytes after 48 hrs by neutral red assay; format: cell-based, Hepatocyte; conditions: read-out: TC50
Plasmodium yoelii yoelii [2] = assay: Antimalarial activity against Plasmodium yoelii 265 sporozoites in primary mice (Mus musculus) hepatocytes after 48 hrs; format: functional, organism-based; conditions: 265 BY, Hepatocyte
Plasmodium yoelii yoelii [3] = assay: Antimalarial activity against Plasmodium yoelii 265 BY liver stage sporozoites in primary mice (Mus musculus) hepatocytes at 38.6 uM after 48 hrs; format: functional; conditions: Hepatocyte
[4] = Selectivity index, ratio of TC50 for primary mice (Mus musculus) hepatocytes to IC50 for Plasmodium yoelii yoelii 265 BY liver stage sporozoites; parameters: species or system Hepatocyte
Plasmodium yoelii yoelii [5] = assay: Antimalarial activity against Plasmodium yoelii 265 BY liver stage sporozoites in primary mice (Mus musculus) hepatocytes at 7.1 uM after 48 hrs; format: functional, organism-based; conditions: Hepatocyte

COc1cc(NC(C)CCCN)c2ncccc2c1 (stereo unspecified) [PRIMAQUINE]
CC50 at 48 h [1]: 70.5 µM | IC50 (Plasmodium yoelii yoelii [2]): 0.64 µM | inhibition in vivo at 38.6 µM (Plasmodium yoelii yoelii [3]): 80% | Ratio [4]: 110

COC1=C2[C@H]3NCC[C@]2(C[C@H](O)[C@@H]1O)c1c(ccc(OC)c1O)[C@H]3O [TAZOPSINE]
CC50 at 48 h [1]: 43.7 µM | IC50 (Plasmodium yoelii yoelii [2]): 3.1 µM | Ratio [4]: 14 | Activity (Plasmodium yoelii yoelii [5]): Active

COC1=C2[C@@H]3Cc4ccc(OC)c(O)c4[C@]2(CCN3)C[C@H](O)[C@@H]1O [SINOCOCULINE]
CC50 at 48 h [1]: 62.2 µM | IC50 (Plasmodium yoelii yoelii [2]): 4.5 µM | Ratio [4]: 13.8

COC1=C2[C@H]3NCC[C@]2(C[C@H](O)[C@@H]1O)c1c(ccc(OC)c1O)[C@@H]3O
CC50 at 48 h [1]: 388 µM | IC50 (Plasmodium yoelii yoelii [2]): 16.1 µM | Ratio [4]: 24.1

COC1=C2[C@H]3NCC[C@]2(C[C@H](O)[C@@H]1O)c1c(ccc(OC)c1O)[C@@H]3O[C@@H]1O[C@H](CO)[C@@H](O)[C@H](O)[C@H]1O
CC50 at 48 h [1]: > 390 µM | IC50 (Plasmodium yoelii yoelii [2]): > 390 µM
